According to patent US20070275006A1, “IRIDOID GLYCOSIDE COMPOSITION” (priority 2006, published 2007):

Tested on: Th1 (IL-2, IFN-γ, TNF alpha) and Th2 (IL-4, IL-5, IL-10) cytokines
Test: Th1 & Th2 cytokines in lymph node cells of HBsAg immunized mice by flowcytometry
Type: in vivo
Details: adjuvant containing HBsAg; immunized mice day 28, flowcytometry
Excerpt: Cytokines (Th1 & Th2 responses) in serum by ELISA (Quantikine, R & D systems) and lymph node cells by flowcytometry collected from immunized mice on day 28th (Quantikine, optia Kit).
High levels of Th1 cytokines were secreted in response to MDP and FCA containing HBsAg.

## CC(=O)N[C@H]1C(O)O[C@H](CO)[C@@H](O)[C@@H]1O[C@H](C)C(=O)N[C@@H](C)C(=O)N[C@H](CCC(=O)O)C(N)=O (mixture of isomers) [MDP, Muramyl dipeptide]
  Th1 and Th2 cytokines in lymph nodes cell culture fluid: very low for the Th2 cytokines and increased Th1 type of immune response
